{"source": "paper PMC5045831", "about": "(Drugs in R&D, 2016)", "key": {"[1]": {"details": "cited from earlier work"}, "[2]": {"details": "cited from earlier work", "remark": "listed apart in the source"}, "[3]": {"assay_type": "in vivo, human"}, "Evaluation of safety": {"assay": "Evaluation of safety", "assay_type": "in vivo, human", "details": "single oral 50 mg with water, lemon or Seville orange juice; nine subjects"}, "[4]": {"details": "cited from earlier work", "remark": "listed apart in the source"}, "[5]": {"details": "Seville orange juice, healthy volunteers"}, "[6]": {"details": "Seville orange juice compared with water"}}, "note": "Where two headings read alike, the source gives them in different places.", "data": [{"smiles": "COc1cc2c(c(OC)c1OC)-c1ccc(OC)c(=O)cc1[C@@H](NC(C)=O)CC2", "note": "[colchicine]", "values": [{"measurement": "decrease in AUC", "setting": "[1]; [5]", "result": 20, "unit": "%"}, {"measurement": "decrease in Cmax", "setting": "[1]; [5]", "result": 24, "unit": "%"}, {"measurement": "delay in Tmax", "setting": "[1]; [5]", "result": 1, "unit": "h"}]}, {"smiles": "COc1ccc2c(c1)[C@]13CCCC[C@@H]1[C@H](C2)N(C)CC3", "note": "[dextromethorphan]", "values": [{"measurement": "change in bioavailability", "setting": "[1]; with Seville orange juice, effects lasted 3 days", "result": "increased significantly"}]}, {"smiles": "CCOC(=O)C1=C(C)NC(C)=C(C(=O)OC)C1c1cccc(Cl)c1Cl", "note": "(centres unmarked) [felopdipine]", "values": [{"measurement": "increase in AUC", "setting": "[2]; with Seville orange", "result": 93, "unit": "%"}, {"measurement": "increase in AUC", "setting": "[2]; with grapefruit", "result": 76, "unit": "%"}]}, {"smiles": "CCCc1nn(C)c2c(=O)[nH]c(-c3cc(S(=O)(=O)N4CCN(C)CC4)ccc3OCC)nc12", "note": "[sildenafil]", "values": [{"measurement": "change in Tmax", "setting": "[3]; [6]", "result": "non-significant changes"}, {"measurement": "increase in AUC0–∞", "setting": "[3]; [6]", "result": 44, "unit": "%"}, {"measurement": "increase in Cmax", "setting": "[3]; [6]", "result": 8, "unit": "%"}, {"measurement": "reduction of apparent oral clearance (CL/F)", "setting": "[3]; [6]", "result": 30, "unit": "%"}, {"measurement": "Tmax", "setting": "[3]; male, human, plasma, po, 50 mg", "result": "~1", "unit": "h"}, {"measurement": "adverse effects reported", "setting": "Evaluation of safety", "result": "without reporting any adverse effect"}, {"measurement": "change in bioavailability", "setting": "[4]; co-administration of ciprofloxacin and clarithromycin", "result": "significantly increases"}, {"measurement": "increase in bioavailability and AUC", "setting": "[4]; with grapefruit juice, Cmax unaffected", "result": 23, "unit": "%"}]}]}
